Measurements published in US4868321A, “Isothiocyanate intermediates” (FMC Corporation, priority 1988, dated 1989).

What was measured:
Format in all cases: in vivo
Cotton [1] = experiment: Preemergence Herbicidal Activity, Cotton; settings: Gossypium hirsutum, pre-emergence; for plant injury at 500 g/ha: 0.5 kg/ha
Source text: (§1) The herbicidal data in the following Tables 3 and 4 was obtained in the manner described in PCT published application no. WO 85/01939, previously mentioned, usually employing solutions of the herbicidal compound in 50/50 acetone/water mixtures. In those tables, the test compounds are identified by numbers which correspond to those in Table 1, "kg/ha" is kilograms per hectare, and "% C" is percent control.

Soybean [2] = experiment: Preemergence Herbicidal Activity, Soybean; settings: Glycine max, pre-emergence; for plant injury at 500 g/ha: 0.5 kg/ha
Source text: (§2) The herbicidal data in the following Tables 3 and 4 was obtained in the manner described in PCT published application no. […] In those tables, the test compounds are identified by numbers which correspond to those in Table 1, "kg/ha" is kilograms per hectare, and "% C" is percent control.

Field Corn [3] = experiment: Preemergence Herbicidal Activity, Field Corn; settings: Zea mays, pre-emergence; for plant injury at 500 g/ha: 0.5 kg/ha
Source text: as §2

Rice [4] = experiment: Preemergence Herbicidal Activity, Rice; settings: Oryza sativa, pre-emergence; for plant injury at 500 g/ha: 0.5 kg/ha
Source text: as §2

Wheat [5] = experiment: Preemergence Herbicidal Activity, Wheat; settings: Triticum aestivum, pre-emergence; for plant injury at 500 g/ha: 0.5 kg/ha
Source text: as §2

Field Bindweed [6] = experiment: Preemergence Herbicidal Activity, Field Bindweed; settings: pre-emergence; for pest or weed control at 500 g/ha: 0.5 kg/ha
Source text: as §1

Morningglory [7] = experiment: Preemergence Herbicidal Activity, Morningglory; settings: Ipomoea, pre-emergence; for pest or weed control at 500 g/ha: 0.5 kg/ha
Source text: as §1

Velvetleaf [8] = experiment: Preemergence Herbicidal Activity, Velvetleaf; settings: Abutilon theophrasti, pre-emergence; for pest or weed control at 500 g/ha: 0.5 kg/ha
Source text: as §1

Barnyardgrass [9] = experiment: Preemergence Herbicidal Activity, Barnyardgrass; settings: Echinochloa crus-galli, pre-emergence; for pest or weed control at 500 g/ha: 0.5 kg/ha
Source text: as §2

Green Foxtail [10] = experiment: Preemergence Herbicidal Activity, Green Foxtail; settings: Setaria viridis, pre-emergence; for pest or weed control at 500 g/ha: 0.5 kg/ha
Source text: as §2

Johnsongrass [11] = experiment: Preemergence Herbicidal Activity, Johnsongrass; settings: Sorghum halepense, pre-emergence; for pest or weed control at 500 g/ha: 0.5 kg/ha
Source text: as §2

Cotton [12] = experiment: Postemergence Herbicidal Activity, Cotton; settings: Gossypium hirsutum, post-emergence; for plant injury at 500 g/ha: 0.5 kg/ha
Source text: as §1

Soybean [13] = experiment: Postemergence Herbicidal Activity, Soybean; settings: Glycine max, post-emergence; for plant injury at 500 g/ha: 0.5 kg/ha
Source text: as §2

Field Corn [14] = experiment: Postemergence Herbicidal Activity, Field Corn; settings: Zea mays, post-emergence; for plant injury at 500 g/ha: 0.5 kg/ha
Source text: as §2

Rice [15] = experiment: Postemergence Herbicidal Activity, Rice; settings: Oryza sativa, post-emergence; for plant injury at 500 g/ha: 0.5 kg/ha
Source text: as §2

Wheat [16] = experiment: Postemergence Herbicidal Activity, Wheat; settings: Triticum aestivum, post-emergence; for plant injury at 500 g/ha: 0.5 kg/ha
Source text: as §2

Field Bindweed [17] = experiment: Postemergence Herbicidal Activity, Field Bindweed; settings: post-emergence; for pest or weed control at 500 g/ha: 0.5 kg/ha
Source text: as §1

Morningglory [18] = experiment: Postemergence Herbicidal Activity, Morningglory; settings: Ipomoea, post-emergence; for pest or weed control at 500 g/ha: 0.5 kg/ha
Source text: as §1

Velvetleaf [19] = experiment: Postemergence Herbicidal Activity, Velvetleaf; settings: Abutilon theophrasti, post-emergence; for pest or weed control at 500 g/ha: 0.5 kg/ha
Source text: as §1

Barnyardgrass [20] = experiment: Postemergence Herbicidal Activity, Barnyardgrass; settings: Echinochloa crus-galli, post-emergence; for pest or weed control at 500 g/ha: 0.5 kg/ha
Source text: as §2

Green Foxtail [21] = experiment: Postemergence Herbicidal Activity, Green Foxtail; settings: Setaria viridis, post-emergence; for pest or weed control at 500 g/ha: 0.5 kg/ha
Source text: as §2

Johnsongrass [22] = experiment: Postemergence Herbicidal Activity, Johnsongrass; settings: Sorghum halepense, post-emergence; for pest or weed control at 500 g/ha: 0.5 kg/ha
Source text: as §2

CCN(c1cc(-n2nnn(CCCF)c2=O)c(F)cc1Cl)S(=O)(=O)CC [Compound 13, 1-[4-chloro-2-fluoro-5-[(N--ethyl-N--ehtylsulfonyl)amino]phenyl]-1,4-dihydro-4-(3-fluoropropyl)-5H--tetrazol-5-one]
95%: plant injury at 1000 g/ha (Cotton [1]; 1.0 kg/ha) | plant injury at 1000 g/ha (Soybean [2]; 1.0 kg/ha) | pest or weed control at 1000 g/ha (Morningglory [7]; 1.0 kg/ha) | plant injury at 1000 g/ha (Soybean [13]; 1.0 kg/ha)
100%: plant injury at 1000 g/ha (Field Corn [3]; 1.0 kg/ha) | plant injury at 1000 g/ha (Rice [4]; 1.0 kg/ha) | plant injury at 1000 g/ha (Wheat [5]; 1.0 kg/ha) | pest or weed control at 1000 g/ha (Field Bindweed [6]; 1.0 kg/ha) | pest or weed control at 1000 g/ha (Velvetleaf [8]; 1.0 kg/ha) | pest or weed control at 1000 g/ha (Barnyardgrass [9]; 1.0 kg/ha) | pest or weed control at 1000 g/ha (Green Foxtail [10]; 1.0 kg/ha) | pest or weed control at 1000 g/ha (Johnsongrass [11]; 1.0 kg/ha) | plant injury at 1000 g/ha (Cotton [12]; 1.0 kg/ha) | plant injury at 1000 g/ha (Field Corn [14]; 1.0 kg/ha) | plant injury at 1000 g/ha (Rice [15]; 1.0 kg/ha) | plant injury at 1000 g/ha (Wheat [16]; 1.0 kg/ha) | pest or weed control at 1000 g/ha (Field Bindweed [17]; 1.0 kg/ha) | pest or weed control at 1000 g/ha (Morningglory [18]; 1.0 kg/ha) | pest or weed control at 1000 g/ha (Velvetleaf [19]; 1.0 kg/ha) | pest or weed control at 1000 g/ha (Barnyardgrass [20]; 1.0 kg/ha) | pest or weed control at 1000 g/ha (Green Foxtail [21]; 1.0 kg/ha) | pest or weed control at 1000 g/ha (Johnsongrass [22]; 1.0 kg/ha)

CCS(=O)(=O)N(COC)c1cc(-n2nnn(CCCF)c2=O)c(F)cc1Cl [Compound 15, 1-[4-chloro-2-fluoro-5-[(N---ethylsulfonyl-N--methoxymethyl)amino]-phenyl]-1,4-dihydro-4-(3-fluoropropyl)-5H--tetrazol-5-one]
80%: pest or weed control at 500 g/ha (Field Bindweed [17]) | pest or weed control at 500 g/ha (Barnyardgrass [20]) | pest or weed control at 500 g/ha (Johnsongrass [22])
90%: pest or weed control at 500 g/ha (Green Foxtail [21])
100%: plant injury at 500 g/ha (Cotton [1]) | plant injury at 500 g/ha (Field Corn [3]) | plant injury at 500 g/ha (Rice [4]) | plant injury at 500 g/ha (Wheat [5]) | pest or weed control at 500 g/ha (Field Bindweed [6]) | pest or weed control at 500 g/ha (Morningglory [7]) | pest or weed control at 500 g/ha (Velvetleaf [8]) | pest or weed control at 500 g/ha (Barnyardgrass [9]) | pest or weed control at 500 g/ha (Green Foxtail [10]) | pest or weed control at 500 g/ha (Johnsongrass [11]) | plant injury at 500 g/ha (Cotton [12]) | plant injury at 500 g/ha (Wheat [16]) | pest or weed control at 500 g/ha (Morningglory [18]) | pest or weed control at 500 g/ha (Velvetleaf [19])
60%: plant injury at 500 g/ha (Rice [15])
95%: plant injury at 500 g/ha (Soybean [2]) | plant injury at 500 g/ha (Soybean [13]) | plant injury at 500 g/ha (Field Corn [14])

CCS(=O)(=O)N(CC#N)c1cc(-n2nnn(CCCF)c2=O)c(F)cc1Cl [Compound 16]
60%: plant injury at 500 g/ha (Wheat [5]) | plant injury at 500 g/ha (Wheat [16]) | pest or weed control at 500 g/ha (Johnsongrass [22])
50%: plant injury at 500 g/ha (Field Corn [14]) | plant injury at 500 g/ha (Rice [15]) | pest or weed control at 500 g/ha (Barnyardgrass [20])
90%: pest or weed control at 500 g/ha (Barnyardgrass [9]) | pest or weed control at 500 g/ha (Johnsongrass [11])
95%: plant injury at 500 g/ha (Field Corn [3])
80%: plant injury at 500 g/ha (Soybean [2])
70%: plant injury at 500 g/ha (Rice [4]) | plant injury at 500 g/ha (Soybean [13]) | pest or weed control at 500 g/ha (Green Foxtail [21])
100%: plant injury at 500 g/ha (Cotton [1]) | pest or weed control at 500 g/ha (Field Bindweed [6]) | pest or weed control at 500 g/ha (Morningglory [7]) | pest or weed control at 500 g/ha (Velvetleaf [8]) | pest or weed control at 500 g/ha (Green Foxtail [10]) | plant injury at 500 g/ha (Cotton [12]) | pest or weed control at 500 g/ha (Field Bindweed [17]) | pest or weed control at 500 g/ha (Morningglory [18]) | pest or weed control at 500 g/ha (Velvetleaf [19])
